Experimental data reported in patent US10500245B2, “Compositions for preventing and/or treating pathological conditions associated with alpha-glucosidase” (UNIVERSITE DE LA ROCHELLE, priority 2014, dated 2019).
Like-named read-outs stand apart in the source and are kept apart here. Where a SMILES comes first, the peptide text is derived from it. Where no end group is shown, it is not given here.

Experiments:
[1] = biological target: recombinant alpha-glucosidase from Saccharomyces cerevisiae, which is a maltase (Saccharomyces cerevisiae, UniProt P53341); test: biochemical; conditions: for median inhibitory concentration of alpha-glucosidase (maltase), times lower relative to the reference inhibitors: relative to acarbose and miglitol; for inhibition of alpha-glucosidase in words: relative to the AP and VAP peptides
Procedure: The synthetic peptides were supplied by GENOSPHERE Biotechnologies.
The alpha-glucosidase used is the recombinant alpha-glucosidase from Saccharomyces cerevisiae, which is a maltase.
The samples were solubilized beforehand in deionized water containing 10% of DMSO (dimethyl sulphoxide).
After incubation at 37° C. for 20 minutes, 20 μL of the substrate p-NPG (p-nitrophenyl glucopyranoside) at 2.5 mM (prepared in the same buffer as mentioned above) was added to the mixture in order to start the reaction.
The reaction medium was incubated for 30 minutes at 37° C. and then the reaction was stopped by adding 80 μL of a solution of sodium carbonate (Na2CO3) at 0.3M.
The quantity of product formed (p-nitrophenyl (p-NP) of yellow colour) was measured by spectrophotometry (absorbance at 410 nm, VersaMax™, Microplate Reader).
The test was carried out in a 96-well microplate.
All the inhibition tests were carried out in triplicate.
The percentage inhibition was calculated from the following equation: […]
OD sample assay corresponds to the optical density obtained for the mixture “sample+enzyme+substrate”.
OD assay blank corresponds to the optical density obtained for the mixture “sample+buffer”.
OD control assay corresponds to the optical density obtained for the mixture “buffer+enzyme+substrate”.
OD control blank corresponds to the optical density obtained for the buffer.

[2] = biological target: T1, recombinant alpha-glucosidase from S. cerevisiae (maltase) (Saccharomyces cerevisiae, UniProt P53341); test: biochemical; assay type: biochemical; conditions: for IC50: Table 2; for inhibition of α-glucosidase in words: relative to acarbose, miglitol and voglibose
T1 construct: purchased Sigma G0660-750UN
Procedure: 20 μl of α-glucosidase in 0.1M potassium phosphate buffer (pH 6.8) at 1.6 U/ml is mixed with 8 μl of the peptide sample or of the reference inhibitor at different concentrations.
The samples are solubilized beforehand in milliQ water containing 10% DMSO (available from Sigma under reference 472301).
After preincubation at 37° C. for 15 min, 20 μl of the substrate p-NPG at 20 mM in 0.1M potassium phosphate buffer (pH 6.8) is added to the mixture in order to start the reaction.
The reaction medium is incubated for 30 min at 37° C. and then the reaction is stopped by adding 80 μl of a 1M solution of sodium carbonate (Na2CO3).
The quantity of product formed (p-nitrophenyl) is measured by reading the absorbance at 410 nm using the Fluostar Omega spectrophotometer (BMG Labtech, Germany).
(§1) All the inhibition tests are carried out in triplicate.
The enzyme used is recombinant alpha-glucosidase from S. cerevisiae (it is a maltase available from Sigma, under reference G0660-750UN).
The substrate used is 4-nitrophenyl α-D-glucopyranoside (p-NPG) (available from Sigma under reference N1377).

α-glucosidase = test: In-vitro determination of the type of inhibition (Lineweaver-Burk, hydrolysis of p-NPG); assay type: biochemical; conditions: straight lines intersect at 1/Vmax
Procedure: The three straight lines are as follows: • Filled circle: […] • Empty circle: test in the presence of 50 μM of AP • Filled triangle: test in the presence of 100 μM of AP
Based on the initial rates, the Lineweaver-Burk representations for each concentration of inhibitor LKP were shown and the type of inhibition was determined. The synthetic LKP peptide was supplied by GENOSPHERE Biotechnologies.
Based on the initial rates, the Lineweaver-Burk representations for each concentration of inhibitor AP were shown and the type of inhibition was determined.

db/db mice = test: Oral test of tolerance to maltose in vivo in db/db mice (Example 5); conditions: maltose 2 g/kg; for effect on the glycaemia of the mice during the test of tolerance to maltose: alone or in combination
Procedure: The inhibitory activity of the AP and VAP peptides and the effect of the AP and VAP peptides on the glycaemic response can be measured in an oral test of tolerance to maltose in vivo in db/db mice that have a glucose intolerance of genetic origin. The mice are 4 weeks of age and each mouse is its own control. A dose of maltose (2 g/kg) was used in order to cause a temporary increase in glycaemia. Four (4) oral tests of tolerance to maltose (2 g/kg) were carried out on each mouse with a minimum interval of 48 h. The order was determined so as to cancel a potentially confounding effect of a change in body composition of the mice during the 3 study weeks. […] The maltose and the test products were administered directly by the oral route (gastric gavage), diluted in 0.9% saline solution. […] • Main Criterion: […] […] The secondary criteria for evaluation were: […] The AUC (area under the curve) was estimated by the trapezium method.

DPP-IV from pig kidney = biological target: T2, DPP-IV from pig kidney (Sus scrofa, UniProt P22411); test: In-vitro determination of the inhibition of DPP-IV by synthetic peptides (Example 14); assay type: biochemical; conditions: for IC50 / inhibitory activity of DPP-IV (IC50) in mmol/l: Table 13, substrate Gly-L-Pro-p-nitroanilide, pH 8.0, 37° C.; for IC50: read-out: inhibitory activity of DPP-IV (IC50); for inhibition of DPP-IV in words: relative to the reference Diprotin A
T2 construct: The enzyme used is DPP-IV from pig kidney; purchased Sigma D7052; host or cells: pig kidney
Procedure: The inhibitory activity of synthetic peptides can be measured in vitro according to the following protocol:
25 μl of the substrate Gly-L-Pro-p-nitroanilide in 0.1 M Tris-HCL buffer (pH 8.0) at 1.6 mM is mixed with 25 μl of the peptide sample or of reference inhibitor at different concentrations. The samples are solubilized beforehand in Tris HCL buffer (pH8.0).
After preincubation at 37° C. for 10 min, 50 μl of the DPP-IV enzyme at a concentration of 0.01 U/ml in 0.1 M Tris-HCL buffer (pH 8.0) is added to the mixture in order to start the reaction. The reaction medium is incubated for 60 min at 37° C. and then the reaction is stopped by adding 100 μl of 1M sodium acetate buffer (pH4).
The quantity of product formed (p-nitroanilide) is measured by reading the absorbance at 385 nm using the Fluostar Omega spectrophotometer (BMG Labtech, Germany).
as §1
The substrate used is Gly-L-Pro-p-nitroanilide hydrochloride (available from Sigma under reference G0513).
The enzyme used is DPP-IV from pig kidney (available from Sigma under reference D7052).
The reference inhibitor is Diprotin A, corresponding to the Ile-Pro-Ile tripeptide (available from Sigma under reference 19759).

saccharase = saccharase (Homo sapiens, UniProt P14410); conditions: in particular saccharase; cited from earlier work
[3] = Inhibitory activity on α-glucosidase (IC50) in mg/ml
[4] = Table 1, enzyme 0.2 U/mL, p-NPG 2.5 mM, pH 6.8, 37° C.
[5] = Table 1, enzyme 0.2 U/mL, p-NPG 2.5 mM, pH 6.8, 37° C., read-out: Inhibitory activity on α-glucosidase (IC50)
[6] = Inhibitory activity on α-glucosidase (IC50) in mmol/l, enzyme 1.6 U/ml, p-NPG 20 mM, pH 6.8, 37° C.
[7] = enzyme 1.6 U/ml, p-NPG 20 mM, pH 6.8, 37° C., read-out: Inhibitory activity on α-glucosidase (IC50)
[8] = read-out: Inhibitory activity on α-glucosidase (IC50) in mg/ml (converted)

T2 sequence (P22411 whole entry): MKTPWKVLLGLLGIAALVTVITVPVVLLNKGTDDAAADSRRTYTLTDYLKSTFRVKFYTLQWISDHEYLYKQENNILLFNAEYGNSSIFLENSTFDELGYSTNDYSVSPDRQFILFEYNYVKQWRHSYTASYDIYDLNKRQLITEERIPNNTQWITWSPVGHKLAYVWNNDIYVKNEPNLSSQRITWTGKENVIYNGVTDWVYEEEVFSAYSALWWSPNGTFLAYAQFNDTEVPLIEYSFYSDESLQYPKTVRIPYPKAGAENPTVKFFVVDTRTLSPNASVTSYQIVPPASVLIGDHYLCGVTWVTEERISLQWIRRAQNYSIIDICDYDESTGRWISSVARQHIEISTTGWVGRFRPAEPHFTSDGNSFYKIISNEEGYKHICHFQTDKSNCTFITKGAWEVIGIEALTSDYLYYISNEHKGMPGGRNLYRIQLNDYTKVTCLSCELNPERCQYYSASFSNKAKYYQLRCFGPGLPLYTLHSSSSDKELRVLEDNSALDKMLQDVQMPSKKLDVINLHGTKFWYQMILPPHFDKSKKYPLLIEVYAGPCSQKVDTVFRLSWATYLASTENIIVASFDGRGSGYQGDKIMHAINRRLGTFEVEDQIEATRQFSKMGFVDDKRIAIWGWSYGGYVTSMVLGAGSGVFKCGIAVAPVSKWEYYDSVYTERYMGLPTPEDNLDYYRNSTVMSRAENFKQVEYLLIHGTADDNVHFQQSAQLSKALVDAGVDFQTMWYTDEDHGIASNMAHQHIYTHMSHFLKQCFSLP
Chain of recombinant alpha-glucosidase from Saccharomyces cerevisiae, which is a maltase (P53341 whole entry): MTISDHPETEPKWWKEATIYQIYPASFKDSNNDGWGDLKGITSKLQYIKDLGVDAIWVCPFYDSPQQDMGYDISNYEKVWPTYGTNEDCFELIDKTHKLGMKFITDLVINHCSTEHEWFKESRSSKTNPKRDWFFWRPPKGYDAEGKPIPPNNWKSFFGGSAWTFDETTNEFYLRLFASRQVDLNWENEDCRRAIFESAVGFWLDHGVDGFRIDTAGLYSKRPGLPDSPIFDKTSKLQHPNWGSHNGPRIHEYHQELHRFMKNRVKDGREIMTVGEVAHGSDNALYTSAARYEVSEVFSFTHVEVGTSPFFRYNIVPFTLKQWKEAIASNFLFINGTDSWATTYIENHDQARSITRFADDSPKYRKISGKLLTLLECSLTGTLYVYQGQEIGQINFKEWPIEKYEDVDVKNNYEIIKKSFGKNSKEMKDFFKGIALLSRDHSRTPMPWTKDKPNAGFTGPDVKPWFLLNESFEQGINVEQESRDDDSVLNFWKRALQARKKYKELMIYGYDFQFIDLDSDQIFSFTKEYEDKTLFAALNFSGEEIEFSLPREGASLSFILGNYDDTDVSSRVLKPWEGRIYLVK
T1 sequence (P53341 whole entry): as above
Chain of saccharase (P14410 whole entry): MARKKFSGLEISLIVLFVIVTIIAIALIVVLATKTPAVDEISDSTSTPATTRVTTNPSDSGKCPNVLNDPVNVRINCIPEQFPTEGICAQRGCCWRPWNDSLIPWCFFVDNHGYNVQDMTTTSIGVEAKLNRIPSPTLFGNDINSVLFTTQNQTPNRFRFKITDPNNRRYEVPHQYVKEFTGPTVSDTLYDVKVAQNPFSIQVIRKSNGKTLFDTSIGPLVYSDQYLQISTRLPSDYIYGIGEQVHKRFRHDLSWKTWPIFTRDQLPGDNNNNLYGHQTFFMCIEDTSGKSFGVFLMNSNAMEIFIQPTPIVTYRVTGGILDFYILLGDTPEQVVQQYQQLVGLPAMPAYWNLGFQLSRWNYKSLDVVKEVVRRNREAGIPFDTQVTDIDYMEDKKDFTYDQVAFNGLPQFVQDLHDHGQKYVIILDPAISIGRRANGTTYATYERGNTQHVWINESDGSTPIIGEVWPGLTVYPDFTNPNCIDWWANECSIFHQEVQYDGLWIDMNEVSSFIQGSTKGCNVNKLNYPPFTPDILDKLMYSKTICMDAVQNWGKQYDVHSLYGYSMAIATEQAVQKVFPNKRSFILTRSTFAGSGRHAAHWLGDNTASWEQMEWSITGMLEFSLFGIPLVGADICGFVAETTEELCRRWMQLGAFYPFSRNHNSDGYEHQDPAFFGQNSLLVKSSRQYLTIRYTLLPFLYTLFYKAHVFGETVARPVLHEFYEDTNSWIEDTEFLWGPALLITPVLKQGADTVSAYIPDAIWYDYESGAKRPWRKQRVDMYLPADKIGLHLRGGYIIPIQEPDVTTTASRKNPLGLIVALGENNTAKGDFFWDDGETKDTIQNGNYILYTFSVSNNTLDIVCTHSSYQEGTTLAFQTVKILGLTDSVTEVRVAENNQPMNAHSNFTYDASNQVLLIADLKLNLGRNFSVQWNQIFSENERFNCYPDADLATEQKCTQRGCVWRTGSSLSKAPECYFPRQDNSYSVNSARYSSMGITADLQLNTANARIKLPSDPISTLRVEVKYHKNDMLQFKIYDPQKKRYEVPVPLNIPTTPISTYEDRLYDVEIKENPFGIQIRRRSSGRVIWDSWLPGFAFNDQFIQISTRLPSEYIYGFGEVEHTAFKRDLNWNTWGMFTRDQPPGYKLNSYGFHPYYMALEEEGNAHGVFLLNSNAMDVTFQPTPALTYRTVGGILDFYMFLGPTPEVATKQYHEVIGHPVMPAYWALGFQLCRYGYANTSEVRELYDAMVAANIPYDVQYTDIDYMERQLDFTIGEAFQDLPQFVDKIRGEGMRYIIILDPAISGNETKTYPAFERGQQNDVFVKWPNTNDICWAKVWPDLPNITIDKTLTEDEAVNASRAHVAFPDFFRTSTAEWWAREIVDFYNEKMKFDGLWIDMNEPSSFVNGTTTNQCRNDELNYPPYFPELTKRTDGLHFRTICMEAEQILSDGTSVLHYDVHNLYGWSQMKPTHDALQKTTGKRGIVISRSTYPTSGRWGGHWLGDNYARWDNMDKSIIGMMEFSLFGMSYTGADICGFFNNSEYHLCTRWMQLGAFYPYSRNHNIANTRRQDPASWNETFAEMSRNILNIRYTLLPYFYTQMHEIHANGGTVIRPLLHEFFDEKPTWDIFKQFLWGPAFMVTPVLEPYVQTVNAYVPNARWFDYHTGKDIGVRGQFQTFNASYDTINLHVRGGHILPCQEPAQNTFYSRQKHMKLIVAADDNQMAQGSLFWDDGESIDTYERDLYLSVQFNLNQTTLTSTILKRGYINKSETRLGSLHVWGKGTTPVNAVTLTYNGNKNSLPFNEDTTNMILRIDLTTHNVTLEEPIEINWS

## C[C@H](N)C(=O)N1CCC[C@H]1C(=O)O [AP] (H-Ala-Pro-OH; N-terminus and C-terminus assumed)
[1]; IC50 on α-glucosidase
  IC50: 0.0136 ± 0.00092 mM
[1]
  median inhibitory concentration of alpha-glucosidase (maltase), times lower relative to the reference inhibitors: approximately 900 times
[2]; [3]
  IC50: 0.0134 mM
[2]
  inhibition of α-glucosidase in words: strongly inhibit
α-glucosidase
  type of inhibition of the degradation of p-NPG: competitive
db/db mice; 500 mg/kg by gastric gavage, resting value 150 mg/dl
  maximum glycaemia value subtracted from the resting value (ΔCmax glycaemia): approximately 280 mg/dl
db/db mice; 500 mg/kg
  effect on the glycaemia of the mice during the test of tolerance to maltose: lower the glycaemia
  effect of treatment on the maximum glycaemia value: significant effect
db/db mice; 500 mg/kg, 0-120 minutes
  effect on the glucose AUC during the oral test of tolerance to maltose: beneficial effect
DPP-IV from pig kidney
  IC50: 4.78 ± 0.284 mM
  inhibition of DPP-IV in words: very weakly

## VIY: peptide sequence VIY of Table 1
[1]; [4]
  Inhibitory activity on α-glucosidase (IC50) in mM: No inhibition

## OCCN1C[C@H](O)[C@@H](O)[C@H](O)[C@H]1CO [Miglitol, miglitol, reference compound]
[1]; [5]
  IC50: 39 ± 0.96 mM
[2]; [3]
  IC50: 37.5 mM
[2]; [6]
  IC50: 37.5 ± 0.69 mM
saccharase
  mode of inhibition of alpha-glucosidase: competitively and reversibly

## CC(C)C[C@H](N)C(=O)N[C@@H](CCCCN)C(=O)N1CCC[C@H]1C(=O)O [LKP] (H-Leu-Lys-Pro-OH; N-terminus and C-terminus assumed)
[1]; Inhibitory activity on α-glucosidase (IC50) in mM, Table 1, enzyme 0.2 U/mL, p-NPG 2.5 mM, pH 6.8, 37° C.
  IC50: 7.11 ± 0.2 mM
[1]
  inhibition of alpha-glucosidase in words: weak inhibitors
[2]; [3]
  IC50: 7.1 mM
[2]; [6]
  IC50: 7.11 ± 0.2 mM
α-glucosidase
  type of inhibition of the degradation of p-NPG: competitive

## CC(C)[C@H](N)C(=O)N[C@@H](C)C(=O)N1CCC[C@H]1C(=O)NCC(=O)O [VAPG] (H-VAPG-OH; N-terminus and C-terminus assumed)
[2]; [3]
  IC50: 4.05 mM
DPP-IV from pig kidney
  IC50: 2.27 ± 0.131 mM

## VAPFPEV [VAPFPEV]
[2]; [3]
  IC50: 2.68 mM
DPP-IV from pig kidney
  IC50: 1.184 ± 0.008 mM

## AVPYQR [AVPYQR]
[2]; [3]
  IC50: 3.19 mM
DPP-IV from pig kidney
  IC50: 5.7 ± 0.08 mM

## NCCCC[C@H](N)C(=O)N[C@@H](Cc1ccc(O)cc1)C(=O)O [KY]
[1]; [5]
  IC50: 10.96 ± 0.1 mM
[1]
  inhibition of alpha-glucosidase in words: weak inhibitors
[2]; [7]
  IC50: 10.96 ± 0.1 mM
[2]; [8]
  IC50: 10.9 mM
DPP-IV from pig kidney
  inhibitory activity of DPP-IV (IC50) in mmol/l: No inhibition

## NCCCC[C@H](N)C(=O)N[C@@H](Cc1c[nH]c2ccccc12)C(=O)O [KW] (H-Lys-Trp-OH; N-terminus and C-terminus assumed)
[1]; [5]
  IC50: 12.8 ± 0.98 mM
[1]
  inhibition of alpha-glucosidase in words: weak inhibitors
[2]; [7]
  IC50: 12.8 ± 0.98 mM
[2]; [8]
  IC50: 12.7 mM

## AVIPIPT
DPP-IV from pig kidney
  inhibitory activity of DPP-IV (IC50) in mmol/l: No inhibition

## CC(C)C[C@H](NC(=O)[C@@H]1CCCN1C(=O)CN)C(=O)O [GPL] (H-Gly-Pro-Leu-OH; N-terminus and C-terminus assumed)
[1]; [5]
  IC50: 4.82 ± 0.15 mM
[1]
  inhibition of alpha-glucosidase in words: weak inhibitors
[2]; [7]
  IC50: 4.82 ± 0.15 mM
[2]; [8]
  IC50: 4.81 mM
DPP-IV from pig kidney
  IC50: 1.85 ± 0.298 mM

## VGVAPG [VGVAPG]
[2]; [3]
  IC50: 4.58 mM
[2]; [6]
  IC50: 4.59 ± 0.06 mM
DPP-IV from pig kidney
  IC50: 10.7 ± 0.769 mM

## SAPLRVY [SAPLRVY]
[2]; [3]
  IC50: 1.76 mM
[2]; [6]
  IC50: 1.76 ± 0.18 mM
DPP-IV from pig kidney
  IC50: 1.06 ± 0.031 mM

## AKK: synthetic peptide of sequence AKK
[1]; [4]
  Inhibitory activity on α-glucosidase (IC50) in mM: No inhibition

## CC(C)[C@H](N)C(=O)N[C@@H](C)C(=O)N1CCC[C@H]1C(=O)O [VAP] (H-Val-Ala-Pro-OH; N-terminus and C-terminus assumed)
[1]; read-out: IC50 on α-glucosidase
  IC50: 0.02 ± 0.00021 mM
[1]
  median inhibitory concentration of alpha-glucosidase (maltase), times lower relative to the reference inhibitors: approximately 600 times
[2]; [8]
  IC50: 0.02 mM
[2]
  inhibition of α-glucosidase in words: strongly inhibit
db/db mice; 500 mg/kg
  effect on the glycaemia of the mice during the test of tolerance to maltose: lower the glycaemia
DPP-IV from pig kidney
  IC50: 4.82 ± 2.3 mM
  inhibition of DPP-IV in words: very weakly

## CC[C@H](C)[C@H](N)C(=O)N[C@@H](Cc1ccc(O)cc1)C(=O)O [IY] (H-Ile-Tyr-OH; N-terminus and C-terminus assumed)
[1]; [5]
  IC50: 12.3 mM
[1]
  inhibition of alpha-glucosidase in words: weak inhibitors
[2]; [7]
  IC50: 12.3 ± 0.25 mM
[2]; [8]
  IC50: 12.2 mM

## CC(C)[C@H](N)C(=O)N[C@@H](Cc1ccc(O)cc1)C(=O)O [VY] (H-Val-Tyr-OH; N-terminus and C-terminus assumed)
[1]
  inhibition of alpha-glucosidase in words: weak inhibitors
[2]; [8]
  IC50: 2.7 mM
DPP-IV from pig kidney
  inhibitory activity of DPP-IV (IC50) in mmol/l: No inhibition
